pEC50, pKi: −log10 of the molar value. Where two headings read alike, the source gives them in different places.

The target of assay [1] is T1, 5HT2A receptor (Homo sapiens, UniProt P28223). As to the kind of experiment: biochemical. Particulars: for Ki: 5HT2A Ki (nM); for pKi: read-out: 5HT2A Ki. More on the design: expressed in transfected cells; crude membranes. The format is binding.
The target in assay [2] is T1, 5HT2A receptor. As to the kind of experiment: cell-based. More on the design: expressed in transfected cells; host or cells: HEK293T cells, transient co-transfection. Particulars: for Emax: HEK-293T.
The target of assay [3] is T1, 5HT2A receptor. As to the kind of experiment: cell-based. On the set-up: expressed in transfected cells; host or cells: HEK293T cells, transient co-transfection. Conditions: for EC50: 5HT2A β-Arr EC50 (nM); for Emax: HEK-293T; for pEC50: read-out: 5HT2A β-Arr EC50.
The mark [4] stands for this setting: secondary radioligand binding, Ki from IC50 by Cheng-Prusoff.
The mark [5] stands for this setting: BRET2 Gαq dissociation, HEK293T cells, read-out: 5HT2A Gq EC50.
Setting [6] is: BRET2 Gαq dissociation, HEK293T cells, normalized to 5-HT, read-out: 5HT2A Gq Emax (%).
[7] abbreviates: BRET1 beta-arrestin2 recruitment, HEK293T cells.
Setting [8] is: BRET1 beta-arrestin2 recruitment, HEK293T cells, normalized to 5-HT, read-out: 5HT2A β-Arr Emax (%).
[9] abbreviates: secondary binding assay, Cheng-Prusoff.
Setting [10] is: 5HTA Gq EC50 (nM), BRET2 Gαq dissociation, HEK293T.
[11] abbreviates: BRET2 Gαq dissociation, HEK293T, normalized to 5-HT, read-out: 5HTA Gq Emax (%).
[12] abbreviates: BRET1 beta-arrestin2 recruitment, HEK293T.
[13] abbreviates: BRET1 beta-arrestin2 recruitment, HEK293T, normalized to 5-HT, read-out: 5HT2A β-Arr Emax (%).
Where [14] appears, read: BRET2 Gαq dissociation, HEK293T, read-out: 5HTA Gq EC50.

T1 sequence (P28223 whole entry): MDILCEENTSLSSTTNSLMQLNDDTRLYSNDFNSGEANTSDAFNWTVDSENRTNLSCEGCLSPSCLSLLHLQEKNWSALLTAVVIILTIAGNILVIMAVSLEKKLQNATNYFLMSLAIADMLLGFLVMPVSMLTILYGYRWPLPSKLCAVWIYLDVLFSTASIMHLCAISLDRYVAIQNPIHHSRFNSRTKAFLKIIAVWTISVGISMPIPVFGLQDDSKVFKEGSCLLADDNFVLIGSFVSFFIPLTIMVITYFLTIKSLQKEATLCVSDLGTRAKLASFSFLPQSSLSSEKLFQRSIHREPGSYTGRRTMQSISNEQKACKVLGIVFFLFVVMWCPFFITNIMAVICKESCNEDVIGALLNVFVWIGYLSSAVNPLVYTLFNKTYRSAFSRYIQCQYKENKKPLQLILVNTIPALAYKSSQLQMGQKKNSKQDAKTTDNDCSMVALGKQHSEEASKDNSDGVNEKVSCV

For `Clc1ccc2c(C3=CCCNC3)n[nH]c2c1` [Example 77, 6-chloro-3-(1,2,5,6-tetrahydropyridin-3-yl)-1H-indazole], the inhibitory constant (Ki) (in general, a measure of affinity in units of concentration, obtained from inhibition or displacement) at 5HT2A receptor [1] (setting [4]) stood at 439 nM. In addition, the pEC50 (in general, the EC50 on a negative log10 scale, so that one unit is a factor of ten) at 5HT2A receptor [2] (setting [5]) was 7.41. Further, the maximal effect (Emax) (commonly the size of the effect at its maximum, as opposed to the concentration needed) amounted to 93.9% on 5HT2A receptor [2] (setting [6]) and 76.7% at 5HT2A receptor [3] (setting [8]). On 5HT2A receptor [3] (setting [7]), the concentration for a half-maximal effect (EC50) – broadly, the midpoint of the concentration-response curve – amounted to 430 nM.
`Clc1cccc2c(C3=CC4CCC(C3)N4)n[nH]c12` (stereo not shown) [Example 221, 3-(8-azabicyclo[3.2.1]oct-2-en-3-yl)-7-chloro-1H-indazole] displayed a Ki on 5HT2A receptor [1] (setting [9]) of 1400 nM. Further, the EC50 at 5HT2A receptor [2] (setting [10]) was found to be 108 nM; at 5HT2A receptor [3] (setting [12]), 1320 nM. Moreover, the Emax at 5HT2A receptor [2] (setting [11]) came out at 59.3%; at 5HT2A receptor [3] (setting [13]), 66.9%.
In the same order, the values of `N#Cc1cccc2c(C34CNCCC3C4)n[nH]c12` (stereo not shown) [Example 195, 3-(3-azabicyclo[4.1.0]heptan-1-yl)-1H-indazole-7-carbonitrile] are over 10000 nM, 1090 nM, 1040 nM, 77.4% and 21.7%.
On to `COc1ccnc2[nH]cc(C3=CCCN(C)C3)c12` [Example 14, 4-methoxy-3-(1-methyl-1,2,5,6-tetrahydropyridin-3-yl)-1H-pyrrolo[2,3-b]pyridine], for which the pKi (in general, −log10 of the Ki, conventionally taken in molar units) at 5HT2A receptor [1] (setting [4]) was 7.37. Further, the results for the negative logarithm of the EC50 (pEC50) on 5HT2A receptor [2] (setting [5]) and on 5HT2A receptor [3] (setting [7]) were 7.14 and 7.13, respectively. For the same molecule, the Emax on 5HT2A receptor [2] (setting [6]) was 67.1%; on 5HT2A receptor [3] (setting [8]), 32.2%.
Turning to `CN1CCC=C(c2n[nH]c3c(Cl)ccc(F)c23)C1` [Example 132, 7-chloro-4-fluoro-3-(1-methyl-1,2,5,6-tetrahydropyridin-3-yl)-1H-indazole], the pKi at 5HT2A receptor [1] (setting [9]) is 7.07. The negative-log EC50 (pEC50) was 7.62 at 5HT2A receptor [2] (setting [14]) and 7.03 at 5HT2A receptor [3] (setting [12]). Moreover, the Emax on 5HT2A receptor [2] (setting [11]) turned out to be 95.4%; on 5HT2A receptor [3] (setting [13]), 50.9%.
Molecule `Fc1cnc2[nH]cc(C3=CCCNC3)c2c1` [Example 120, 5-fluoro-3-(1,2,5,6-tetrahydropyridin-3-yl)-1H-pyrrolo[2,3-b]pyridine] yielded a Ki on 5HT2A receptor [1] (setting [4]) of 53.6 nM. In addition, the concentration for a half-maximal effect (EC50) at 5HT2A receptor [2] (5HT2A Gq EC50 (nM), BRET2 Gαq dissociation, HEK293T cells) amounted to 21.5 nM; on 5HT2A receptor [3] (setting [7]) it was 67.4 nM. The Emax on 5HT2A receptor [2] (setting [6]) is 100%; at 5HT2A receptor [3] (setting [8]) it was 60.4%.
For the molecule `Clc1ccc2[nH]nc(C3=CCCNC3)c2c1` [Example 84, 5-chloro-3-(1,2,5,6-tetrahydropyridin-3-yl)-1H-indazole], the negative-log Ki (pKi) at 5HT2A receptor [1] (setting [4]) is 7.60. Moreover, the negative-log EC50 (pEC50) is 8.47 at 5HT2A receptor [2] (setting [5]) and 7.28 on 5HT2A receptor [3] (setting [7]). Besides, the Emax came out at 94.8% on 5HT2A receptor [2] (setting [6]) and 97% at 5HT2A receptor [3] (setting [8]).
`CCc1cccc2c(C3=CCCNC3)c[nH]c12` [Example 50, 7-ethyl-3-(1,2,5,6-tetrahydropyridin-3-yl)-1H-indole]: the inhibition constant (Ki) on 5HT2A receptor [1] (setting [4]) was determined as 244 nM. Besides, the negative logarithm of the EC50 (pEC50) is 8.33 at 5HT2A receptor [2] (setting [5]) and 7.17 at 5HT2A receptor [3] (setting [7]). The results for the Emax at 5HT2A receptor [2] (setting [6]) and at 5HT2A receptor [3] (setting [8]) were 92.6% and 79.1%, respectively.
For the molecule `Fc1cc(Cl)c2[nH]nc(C34CNCC3C4)c2c1` (stereo not shown) [Example 185, 3-(3-azabicyclo[3.1.0]hexan-1-yl)-7-chloro-5-fluoro-1H-indazole], the Ki at 5HT2A receptor [1] (setting [9]) turned out to be 6740 nM. In addition, the EC50 on 5HT2A receptor [2] (setting [10]) came to 290 nM; on 5HT2A receptor [3] (setting [12]), 542 nM. Moreover, the maximum response (Emax) on 5HT2A receptor [2] (setting [11]) was found to be 78.1%; at 5HT2A receptor [3] (setting [13]), 46.1%.
For the molecule `Cc1ccnc2[nH]cc(C3=CCCN(C)C3)c12` [Example 13, 4-methyl-3-(1-methyl-1,2,5,6-tetrahydropyridin-3-yl)-1H-pyrrolo[2,3-b]pyridine], the pKi on 5HT2A receptor [1] (setting [4]) was 7.20. For the same molecule, the pEC50 at 5HT2A receptor [2] (setting [5]) was 6.98; at 5HT2A receptor [3] (setting [7]) it was 6.12. Moreover, the Emax on 5HT2A receptor [2] (setting [6]) came to 68.7%; on 5HT2A receptor [3] (setting [8]), 38.9%.
On the same counts, the results for `CC(C)c1ccc2[nH]cc(C3=CCCNC3)c2c1` [Example 23, 5-isopropyl-3-(1,2,5,6-tetrahydropyridin-3-yl)-1H-indole] are 7.01, 7.18, 6.13, 58.8% and 31.4%.
`Cc1cccc2[nH]cc(C3=CCCN(C)C3)c12` [Example 19, 4-methyl-3-(1-methyl-1,2,5,6-tetrahydropyridin-3-yl)-1H-indole] had an inhibition constant Ki at 5HT2A receptor [1] (setting [4]) of 136 nM. In addition, at 5HT2A receptor [2] (setting [5]), the pEC50 is 8.05. Further, the results for the maximal effect (Emax) at 5HT2A receptor [2] (setting [6]) and on 5HT2A receptor [3] (setting [8]) were 75.9% and 40.4%, respectively. Besides, the EC50 at 5HT2A receptor [3] (setting [7]) turned out to be 102 nM.
With `Clc1cccc2c(C34CNCC3C4)n[nH]c12` (single isomer, unassigned) [Example 274, 3-(3-azabicyclo[3.1.0]hexan-1-yl)-7-chloro-1H-indazole], at 5HT2A receptor [1] (setting [9]), the inhibition constant (Ki) was determined as 1580 nM. Moreover, on 5HT2A receptor [2] (BRET2 Gαq dissociation, HEK293T, normalized to 5-HT), the “5HTA Gq Emax (%)” value was 117.2%. Also, the pEC50 on 5HT2A receptor [2] (setting [14]) is 7.21. Besides, the EC50 on 5HT2A receptor [3] (setting [12]) came to 733 nM. For the same molecule, the “5HT2A β-Arr Emax (%)” value at 5HT2A receptor [3] (BRET1 beta-arrestin2 recruitment, HEK293T, normalized to 5-HT) was 50.96%.
In turn, `CN1CCC=C(c2n[nH]c3cccc(C#N)c23)C1` [Example 99, 3-(1-methyl-1,2,5,6-tetrahydropyridin-3-yl)-1H-indazole-4-carbonitrile] came in with a Ki at 5HT2A receptor [1] (setting [4]) of 491 nM. On 5HT2A receptor [2] (setting [5]), the pEC50 is 7.02. Moreover, the Emax on 5HT2A receptor [2] (setting [6]) was found to be 80%; on 5HT2A receptor [3] (setting [8]), 43.8%. At 5HT2A receptor [3] (setting [7]), this molecule came in with an EC50 of 1010 nM.
Regarding `CCc1cccc2c(C3=CCCN(C)C3)c[nH]c12` [Example 52, 7-ethyl-3-(1-methyl-1,2,5,6-tetrahydropyridin-3-yl)-1H-indole], the negative-log Ki (pKi) on 5HT2A receptor [1] (setting [4]) was 7.38. The pEC50 on 5HT2A receptor [2] (setting [5]) is 7.60. Besides, the figures for the Emax at 5HT2A receptor [2] (setting [6]) and on 5HT2A receptor [3] (setting [8]) were 89.3% and 73.4%, respectively. The midpoint of the response at 5HT2A receptor [3] (setting [7]), the EC50, lay at 880 nM.
Molecule `Cc1cccc2c(C3CN(C)C3)c[nH]c12` [Example 261, 7-methyl-3-(1-methylazetidin-3-yl)-1H-indole] had an inhibition constant Ki at 5HT2A receptor [1] (setting [9]) of 1680 nM. For the same molecule, the 50% effective concentration (EC50) on 5HT2A receptor [2] (setting [10]) came to 196 nM; at 5HT2A receptor [3] (setting [12]) it was 1650 nM. Besides, the maximum response (Emax) is 69.3% on 5HT2A receptor [2] (setting [11]) and 26.1% on 5HT2A receptor [3] (setting [13]).
`N#Cc1cccc2[nH]nc(C3=CCCNC3)c12` [Example 82, 3-(1,2,5,6-tetrahydropyridin-3-yl)-1H-indazole-4-carbonitrile] returned a Ki on 5HT2A receptor [1] (setting [4]) of 153 nM. The negative-log EC50 (pEC50) at 5HT2A receptor [2] (setting [5]) was 7.92. Also, the maximal response (Emax) on 5HT2A receptor [2] (setting [6]) was 95.9%; on 5HT2A receptor [3] (setting [8]), 87.9%. On 5HT2A receptor [3] (setting [7]), this molecule returned an EC50 of 562 nM.
On the same counts, the results for `N#Cc1ccc2[nH]nc(C3=CCCNC3)c2c1` [Example 86, 3-(1,2,5,6-tetrahydropyridin-3-yl)-1H-indazole-5-carbonitrile] are 370 nM, 7.80, 90.2%, 95.1% and 354 nM.
As for `Fc1ccc2c(C3=CCCNC3)n[nH]c2c1` [Example 78, 6-fluoro-3-(1,2,5,6-tetrahydropyridin-3-yl)-1H-indazole], the negative-log Ki (pKi) at 5HT2A receptor [1] (setting [4]) was 7.24. Also, the pEC50 at 5HT2A receptor [2] (setting [5]) was 7.94; on 5HT2A receptor [3] (setting [7]), 6.94. Also, the values for the maximum response (Emax) on 5HT2A receptor [2] (setting [6]) and at 5HT2A receptor [3] (setting [8]) were 79.4% and 59.4%, respectively.
At 5HT2A receptor [1] (setting [9]), `Clc1cccc2c(C3=CCCN(C4CC4)C3)n[nH]c12` [Example 166, 7-chloro-3-(1-cyclopropyl-1,2,5,6-tetrahydropyridin-3-yl)-1H-indazole] registered an inhibition constant (Ki) of 307 nM. The 50% effective concentration (EC50) on 5HT2A receptor [2] (setting [10]) stood at 47.1 nM; on 5HT2A receptor [3] (setting [12]) it was 120 nM. In addition, the Emax at 5HT2A receptor [2] (read-out: 5HTA Gq Emax (%), BRET2 Gαq dissociation, HEK293T, normalized to 5-HT) came to 64%; at 5HT2A receptor [3] (read-out: 5HT2A β-Arr Emax (%), BRET1 beta-arrestin2 recruitment, HEK293T, normalized to 5-HT) it was 24.9%.

(Values after patent publication US20260265246A1 (ICAHN SCHOOL OF MEDICINE AT MOUNT SINAI, priority 2021, published 2026).)
